Assay: Human HepG2 cell viability assay in 384 well format
Format: toxicity, cell-based
Set-up: dose 125 nL, time 70.5 hour; concentration not given beside the values
Details: HepG2 cells, read-out: Inhibition

Row | Compound | cytotoxicity at 70.5 h
1 | COc1cc2nc3n(c(=O)c2cc1OC)CCN(C)CC3 | 3.41%
2 | O=C(CSCc1ccccn1)NCC1CC1 | 0.905%
3 | CN1CC=C(c2noc(CCC(=O)N3CCCC3)n2)CC1 | 7.74%
4 | O=C(c1cc(Cl)c[nH]1)N1CCN(CCc2ccccn2)CC1 | -16%
5 | c1ccc(CN2CCOC3CNCC[C@H]32)cc1 (some centres undefined) | 13.7%
6 | CCCc1nc(Nc2cccc(C(N)=O)c2)c2c(n1)c(C)nn2CC | -4.15%
7 | Fc1ccc(COCC2CCN(Cc3ccccn3)CC2)cc1 | -4.18%
8 | COc1ccccc1OCCCN(C)c1cc(C)nc(N)n1 | -4.86%
9 | Cc1cc(CN2CCCC2c2noc(C3CC3)n2)c2ccccc2n1 (centres undefined) | 51.7%
10 | CC(C)N(CCCNC(=O)C1CCOCC1)S(C)(=O)=O | -5.89%
11 | O=C(c1cc[nH]n1)N1CCCC1c1cnccn1 (centres undefined) | -10.5%
12 | COCC(=O)N1CCC2(CC1)CC(=O)N(Cc1ccc(Cl)cc1)C2 | -6.31%
13 | CCOc1cc(CNC(=O)c2cc(-c3ccccn3)no2)ccn1 | -6.7%
14 | c1cc2c(cc1Cn1cc(C3CCOC3)nn1)OCO2 (centres undefined) | -16.1%
15 | CN(C)CC1CN(Cc2nc(-c3ccccn3)no2)CCO1 (centres undefined) | 16.4%
16 | CC(CCc1ccccc1)N1CCC(C(=O)Nc2cnccn2)CC1 (centres undefined) | -19.2%
17 | CCc1nc(C)c(C(=O)N2CCCC(c3noc(C)n3)C2)s1 (centres undefined) | -6.51%
18 | CCC(O)CN1CCN(C(=O)c2cnc3n[nH]c(C)c3c2)CC1 (centres undefined) | -7.48%
19 | CC(C)N1CCC(Cc2cc(-c3cccc(C(=O)O)c3)ncn2)C1 (centres undefined) | -15%
20 | CCn1cc(CNC(C)c2noc(-c3ccc(Cl)cc3)n2)cn1 (centres undefined) | -3.37%
21 | Cc1nnc([C@@]23CCO[C@@H]2CCN(S(C)(=O)=O)C3)o1 | -0.978%
22 | Cc1cccc(CN2C(=O)CC[C@H]3[C@@H]2CCN3CC(=O)N(C)C)n1 | -7.14%
23 | CCC[C@H]1CN(S(C)(=O)=O)C[C@@H]1NC(=O)COC(C)C | -5.47%

Row | Compound | cytotoxicity at 70.5 h
24 | O=C(CCSc1ccc(F)cc1)NS(=O)(=O)c1ccc2c(c1)OCCO2 | -6.96%
25 | O=C(c1cn2ccsc2n1)N1CCN(CC2CC2)[C@@H]2CS(=O)(=O)C[C@@H]21 | -10.5%
26 | CCC(=O)NCC(=O)Nc1c(C)cnn1Cc1cc(F)ccc1F | -5.16%
27 | CC(C)NC(=O)[C@H]1C[C@@H]2[C@@H](C1)OCCN2Cc1ccncc1 | -7.54%
28 | CCn1ccnc1CNc1nccc(-c2cn(C)nc2C)n1 | -2.79%
29 | CCOCC(=O)N1Cc2nccn2CC(CN2CCCC2)C1 (centres undefined) | -11.5%
30 | Fc1ccc(CN2CCCC3(COCCN(Cc4c[nH]nn4)C3)C2)cc1 (centres undefined) | -5.93%
31 | CCc1ccccc1Nc1noc2c1CN(C(=O)CNC(C)=O)CC2 | 6.37%
32 | O=c1[nH]nc2nc(N3CCOCC3)ccn12 | -1%
33 | CCCn1cc2c(C(F)F)cc(SCC(=O)O)nc2n1 | -8.88%
34 | O=C([C@@H]1CCO[C@@H]2CCN(CC3CCOCC3)C[C@H]21)N1CCCO1 | 46.7%
35 | c1ncc(Nc2nccc(C3CCCCN3CC3CCCCC3)n2)cn1 (centres undefined) | -2.27%
36 | CC(=O)N(Cc1noc(C2CC2)n1)C1CCN(Cc2cc(C)on2)C1 (centres undefined) | -3.51%
37 | Cc1cccc(C(=O)Nc2c(C(N)=O)n[nH]c2C)c1C | -5.24%
38 | CNCc1cn(C[C@H]2CC3CCN2C[C@@H]3C(=O)Nc2ccccc2)nn1 (some centres undefined) | -9.94%
39 | c1cc(CNCc2ccnc(N3CCCC3)c2)c2c(c1)OCCCO2 | -10%
40 | Cn1nc(CNC(=O)CC#N)c2c1CN(CC1CC1)CC2 | -3.91%
41 | CCn1ccc(-c2cc(NCCCOc3ccccc3C)nc(C)n2)n1 | -1.9%
42 | CN(C)c1nccc(CNS(=O)(=O)c2cc(Cl)cc(Cl)c2)n1 | -1.35%
43 | Cc1cc(F)ccc1N1CCCC(NC2CCSCC2)C1=O (centres undefined) | -2.24%
44 | CN1C(=O)[C@H]2CC[C@@H]1CN(C(=O)Nc1ccccc1C(F)(F)F)C2 | -4.06%
45 | CN(Cc1ccccc1)CC(C)(C)NC(=O)c1ccc(C(N)=O)cn1 | 1.67%
46 | COCCC(=O)N1CCC(Nc2ncc(Cl)cn2)CC1 | 0.73%

Row | Compound | cytotoxicity at 70.5 h
47 | CCCC(C)NC(=O)CCN1C(=O)CCc2cc(F)ccc21 (centres undefined) | 2.38%
48 | COc1ccc(C2(c3nc(-c4cnn(C)c4)no3)CCOCC2)cc1 | -3.48%
49 | Cn1cccc1C(CNC(=O)COc1ccc(Cl)cc1Cl)N1CCCC1 (centres undefined) | -16.7%
50 | CN(CC(=O)N1CCCCC1c1nc(C(C)(C)C)cs1)C1CC1 (centres undefined) | 1.94%
51 | Cn1nc(C2CNCCO2)cc1CCOc1ccc(C(F)(F)F)cc1 (centres undefined) | -1.52%
52 | COCC(=O)N1CCC2(CC1)CC(c1cnn(C)c1)C(=O)N2 (centres undefined) | -6.84%
53 | Cn1cc(CNC2CCS(=O)(=O)C2)c(-c2cc3ccccc3o2)n1 (centres undefined) | 5.22%
54 | Cc1cc(C(=O)N2CCN(C(=O)Cc3ccccn3)CC2)c(C)s1 | 0.259%
55 | Cc1nsc(NCc2ccc(CS(=O)(=O)NC(C)C)cc2)n1 | -9.39%
56 | OCC1(O)CCCN(Cc2ccc(-c3cc[nH]n3)s2)CC1 (centres undefined) | -9.87%
57 | CC(C)c1noc(CCC(=O)NCC2CCC(C(N)=O)CC2)n1 (centres undefined) | 1.53%
58 | N#Cc1nccnc1NC1CCN(c2ccccc2OC(F)F)C1 (centres undefined) | -5.2%
59 | COCC(O)CN(C)c1cc(C(F)(F)F)nc(-c2cccnc2)n1 (centres undefined) | -1.69%
60 | CCS(=O)(=O)N1CCN(CC(F)(F)F)CC1 | -5.53%
61 | COc1c(C2CCCN2C(=O)c2ccc(Cl)o2)c(C)nn1C (centres undefined) | -5.88%
62 | Cc1cccnc1CN1CCN(C(=O)c2ccn(C(C)(C)C)c2)CC1 | 40.4%
63 | Cc1ocnc1C(=O)Nc1ccc(-c2nnc(N(C)C)o2)cc1 | -3.15%
64 | COCC1c2nnn(CC3CC3)c2CCN1C(=O)N1CCCC1 (centres undefined) | 14.1%
65 | Cc1cc(Br)ccc1CNC(=O)C1(O)CCSCC1 | 9.16%
66 | Cn1ccc(C(=O)N2C[C@@H]3OCCN(c4ncccn4)[C@@H]3C2)n1 | -12.1%
67 | CC(NC(=O)NCCCN1CCCCCC1)c1nncn1C (centres undefined) | 0.545%
68 | COCCN(C)C(C(=O)O)c1ccc(F)c(C)c1 (centres undefined) | -2.89%
69 | COc1cccc(CN(Cc2ncc[nH]2)Cc2ccco2)c1 | -2.53%

Row | Compound | cytotoxicity at 70.5 h
70 | Cc1ccc2c(c1)C(=O)NCC1(CCN(C(=O)c3cc(C)no3)CC1)O2 | -7.27%
71 | CC(C)N1CCc2c(CN(C)Cc3ccco3)cncc2C1 | 5.22%
72 | Nc1cc(C(=O)NCC2CCN(CCc3ccccc3)C2)ccn1 (centres undefined) | -6.39%
73 | CCn1cc(CN2CCCN(C(=O)c3ccoc3)CC2)cn1 | 9.04%
74 | CN(C)C[C@H]1OC[C@@H]2CCN(C(=O)c3ccc[nH]3)C[C@@H]21 | -4.7%
75 | c1cnc(N2CCCC(NCc3cccc4c3OCCO4)C2)nc1 (centres undefined) | 3.71%
76 | CNC(=O)NC(=O)C(NCc1cccs1)c1ccccc1 (centres undefined) | 34.4%
77 | CCc1nc(CC(=O)Nc2cnn(CC3CCCO3)c2)cs1 (centres undefined) | -7.79%
78 | Cc1cnn(CCC(=O)N2CCCN(c3ccccc3C#N)CC2)c1 | -1.64%
79 | Cc1cc(NC(=O)NCC2(O)CCCC2)ccn1 | -14%
80 | Cc1cccc(CN2CCOCC3(CCN(C4CCOCC4)C3)C2)c1 (centres undefined) | 9.31%
81 | CC(=O)Nc1nc2c(s1)C1(CCN(C)CC1)Nc1ccccc1S2 | 3.04%
82 | Cc1nnc2n1CCN(Cc1csc(-c3ncccn3)n1)C2 | 39.4%
83 | Cc1ccc(S(=O)(=O)NCCc2cccnc2)cc1C | -3.85%
84 | Cn1ccnc1CN1CCC(F)(F)C2(CCN(c3cnccn3)C2)C1 (centres undefined) | 19.3%
85 | COCC1CN(C(=O)COc2ccccc2)Cc2ncn(C)c21 (centres undefined) | -0.249%
86 | CCn1cc(CN(C)S(=O)(=O)N2CCCC2c2ccco2)cn1 (centres undefined) | -1.42%
87 | CCc1nc(CN2CCCN(C(=O)C(C)n3cncn3)CC2)cs1 (centres undefined) | -8.34%
88 | Cc1cc(C)nc(Nc2cccc(C3CCCN(CC4CC4)C3)n2)n1 (centres undefined) | -5.69%
89 | COc1cc(N2C[C@H](OCc3cccnc3)[C@H]3OCCC[C@H]32)ncn1 | 3.36%
90 | CCC(c1ccccc1)c1nn2c(CN(CC)CC)nnc2s1 (centres undefined) | -5.77%
91 | O=C(c1cc(C2CC2)on1)N1CCC(Oc2ncccc2Cl)CC1 | -6.96%
92 | OCC1CCCCN1Cc1nc(Cc2cccc(F)c2)no1 (centres undefined) | -12.1%

Row | Compound | cytotoxicity at 70.5 h
93 | Cc1nc(C2CCCNC2)cc(N(C)CCc2ccccc2)n1 (centres undefined) | 20.6%
94 | O=C(c1ccoc1)N1CCC2(CC1)COC(COc1ccccn1)C2 (centres undefined) | -4.94%
95 | CO[C@H]1CCN(C(=O)Cc2ccsc2)[C@@H]2CN(CC3CC3)C[C@H]12 | -4.21%
96 | Cc1cc(-c2ccccc2C(=O)O)nc(C2CCCCN2C)n1 (centres undefined) | -6.42%
97 | FCCOc1cccc(NCc2c[nH]nc2-c2cccnc2)c1 | -3.33%
98 | O=C(Nc1cccc2c1CCCC2)c1cccnc1N1CCCNCC1 | -5.23%
99 | CCN(CC)C(=O)c1nnsc1-c1ccccc1 | -10.3%
100 | COc1cccc(OCCNCc2ccccc2)c1 | -7.2%
101 | COC(=O)C(C)NC(=O)CSCc1nc(O)c2cc(C(C)C)sc2n1 (centres undefined) | 6.75%
102 | CN(C)CCCNC(=O)c1nnsc1-c1ccccc1 | -8.68%
103 | Cc1ncc(C(=O)OCC2CCN(c3ccccc3)C2)s1 (centres undefined) | -126%
104 | c1cnc(N2CCCC(c3cncc(-n4ccnc4)n3)C2)nc1 (centres undefined) | 13.4%
105 | CCc1nc(C(=O)N2CCN(Cc3ccc(Cl)cc3)CC2)c[nH]1 | -2.01%
106 | CCc1noc(CCC(=O)N[C@@H]2CC[C@@H](n3ccnc3)[C@@H]2O)n1 | -8.61%
107 | Cc1nc(N2CCCCC2)ncc1-c1cc(O)nc(N2CCCCC2)n1 | -0.353%
108 | Cc1nnc2n1CCN(CCS(=O)(=O)c1ccccc1)C2 | -9.06%
109 | CCCc1nnsc1C(=O)NCC(O)c1cccs1 (centres undefined) | -6.4%
110 | Cc1cc(C(=O)N2CCN(c3ncc4c(n3)CCOC4)CC2)sc1C | 2.24%
111 | c1csc(-c2noc(CNC3CCc4ncnn4C3)n2)c1 (centres undefined) | -8.26%
112 | CN(C)C(=O)COC[C@@]12CCC[C@@H]1CN(C1CCCC1)C2 | -1.63%
113 | COc1ccc(-c2cnc(CN3CCCC3Cn3cncn3)o2)cc1 (centres undefined) | -6.4%
114 | COc1ccc(-c2nnsc2C(=O)N2CCOCC2)cc1 | -11.2%
